Data published in patent publication US20180312493A1, “Antibiotic Compounds, Pharmaceutical Formulations Thereof And Methods And Uses Therefor” (Simon Fraser University, priority 2015, published 2018).
pIC50: −log10 of the molar value. Converted amounts (≈) assume the structure as drawn.

What was measured:
[1] = test system: S. aureus (ATCC29213); test: In vitro susceptibility, broth microdilution (MIC); format: cell-based; details: Staphylococcus aureus; S. aureus ATCC29213; 18-24 h, 37 C; read-out: Antimicrobial activity (MIC) S. aureus ATCC29213
How it was run: (§1)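 CLSI 2-fold serial broth microdilution; K. pneumoniae C238 grown in L-broth, S. aureus ATCC 29213 in Mueller Hinton broth, plates incubated 18–24 h at 37 °C. MIC taken as lowest concentration giving complete growth inhibition by OD600 versus compound-free wells, background-subtracted.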

[2] = test system: K. pneumoniae (C238); test: In vitro susceptibility, broth microdilution (MIC); format: cell-based; details: Klebsiella pneumoniae; K. pneumoniae (C238); read-out: Antimicrobial activity (MIC) K. pneumoniae
How it was run: as §1

[3] = test system: MRSA MW2 (USA400); test: In vitro susceptibility, broth microdilution (MIC); format: cell-based, methicillin resistant S. aureus; details: Staphylococcus aureus; MRSA MW2 (USA400); read-out: Antimicrobial activity (MIC) MSRA USA400
How it was run: (§2)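 MIC determined by CLSI 2-fold broth microdilution in cation-adjusted Mueller–Hinton broth at ~2.5×10^5 CFU/ml, final compound 0.031–64 μg/ml, 18–24 h at 37 °C. MIC is the lowest concentration giving complete growth inhibition by background-corrected OD600 versus compound-free wells; duplicate or triplicate wells, replicated at least twice.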

[4] = molecular target: T1, MRSA Pyk (Staphylococcus aureus, UniProt Q6GG09); test: MRSA pyruvate kinase (PK) activity, continuous LDH-coupled assay; format: biochemical, methicillin resistant S. aureus (MRSA252)
T1 construct: made in house; host or cells: E. coli BL-21 (DE3)
How it was run: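 Activity monitored continuously as absorbance change at 340 nm from NADH oxidation via coupled lactate dehydrogenase, reactions started with 15 nM recombinant His-tagged PK (MRSA or human isoform) and run at 30° C for up to 5 min. Ki derived by varying inhibitor (0-400 nM) and PEP (2-20 mM) at 2 mM ADP; IC50 by four-parameter fitting.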

[5] = test system: VRE#2 (2010A); test: In vitro susceptibility, broth microdilution (MIC); format: cell-based, vancomycin resistant Enterococci; details: VRE#2 (2010A); read-out: Antimicrobial activity (MIC) VRE#2
How it was run: as §2

[6] = test system: A. baumannii (ATCC 17978); test: In vitro susceptibility, broth microdilution (MIC); format: cell-based; details: Acinetobacter baumannii, ATCC17978; A. baumannii ATCC 17978 (values marked *); read-out: Antimicrobial activity (MIC) A. baumannii
How it was run: as §2

[7] = test system: MRSA (ATCC BAA-1762); test: In vitro susceptibility, broth microdilution (MIC); format: cell-based, methicillin resistant S. aureus; details: Staphylococcus aureus; MRSA ATCC BAA-1762; read-out: Antimicrobial activity (MIC) MRSA ATCC BAA1762
How it was run: as §2

Row | MIC [3] [µg/mL] | SMILES | MIC [1] [µg/mL] | MIC [2] [µg/mL] | pIC50 [4] | MIC [5] [µg/mL] | MIC [6] [µg/mL] | MIC [7] [µg/mL]
1 | > 64 | O=S(=O)(Nc1nc2cc(Br)ccc2s1)c1ccc(Cl)cc1 [Compound 101, N-(5-bromobenzo[d]thiazol-2-yl)-4-chlorobenzenesulfonamide] | 8 (≈ 19.8 µM) | 32 (≈ 79.3 µM) | – | – | – | –
2 | – | Clc1ccc(-c2cc3[nH]c4cc(Br)ccc4c3nc2-c2ccccc2)cc1 [Compound 112, 7-bromo-3-(4-chlorophenyl)-2-phenyl-5H-pyrido[3,2-b]indole] | 32 (≈ 73.8 µM) | > 64 | 6.00 to 7.00 | > 64 | > 64 | –
3 | – | CN(C)c1cc[n+](CCCNC(=O)c2c(-c3cc4cc(Cl)ccc4[nH]3)[nH]c3cc(Br)ccc23)cc1 [Compound 145, 1-(3-(6-bromo-5′-chloro-1H, 1′H-[2,2′-biindole]-3-carboxamido)propyl)-4-(dimethylamino)pyridin-1-ium] | 8 | – | > 7.00 | 16 | > 64 | 16
4 | – | O=C(NCCC[n+]1ccc2ccccc2c1)c1c(-c2cc3cc(Cl)ccc3[nH]2)[nH]c2cc(Br)ccc12 [Compound 146, 2-(3-(6-bromo-5′-chloro-1H,1′H-[2,2′-biindole]-3-carboxamido)propyl)isoquinolin-2-ium] | 32 | – | > 7.00 | 64 | > 64 | 32
5 | – | C[N+](C)(C)CCCNC(=O)c1c(-c2cc3cc(Cl)ccc3[nH]2)[nH]c2cc(Br)ccc12 [Compound 147, 3-(6-bromo-5′-chloro-1H,1′H-[2,2′-biindole]-3-carboxamido)-N,N,N-trimethylpropan-1-aminium] | 16 | – | > 7.00 | 16 | > 64 | 16
6 | – | COc1ccc(NC(=O)Nc2nc3cc(Br)ccc3s2)cc1 [Compound 152, 1-(5-bromobenzo[d]thiazol-2-yl)-3-(4-methoxyphenyl)urea] | 1 (≈ 2.64 µM) | – | – | 2 (≈ 5.29 µM) | > 64 | 1 (≈ 2.64 µM)
7 | – | O=C(Nc1ccc(Cl)c(Cl)c1)Nc1nc2cc(Br)ccc2s1 [Compound 155, 1-(5-bromobenzo[d]thiazol-2-yl)-3-(3,4-dichlorophenyl)urea] | 0.5 (≈ 1.2 µM) | – | – | 0.5 (≈ 1.2 µM) | > 64 | 0.5 (≈ 1.2 µM)
8 | – | O=C(Nc1ccc(Cl)c(C(F)(F)F)c1)Nc1nc2cc(Br)ccc2s1 [Compound 156, 1-(5-bromobenzo[d]thiazol-2-yl)-3-(4-chloro-3-(trifluoromethyl)phenyl)urea] | 0.5 (≈ 1.11 µM) | – | – | 1 (≈ 2.22 µM) | 64 (≈ 142 µM) | 1 (≈ 2.22 µM)
9 | – | O=C(NCc1ccccc1)Nc1nc2cc(Br)ccc2s1 [Compound 158, 1-benzyl-3-(5-bromobenzo[d]thiazol-2-yl)urea] | 2 (≈ 5.52 µM) | – | – | 2 (≈ 5.52 µM) | > 64 | 1 (≈ 2.76 µM)
10 | – | O=C(COc1cc2[nH]c(-c3cc4ccc(Br)cc4[nH]3)cc2cc1Cl)NCCC[n+]1ccccc1 [Compound 190, 1-(3-(2-((6′-Bromo-5-chloro-1H,1′H-[2,2′-biindol]-6-yl)oxy)acetamido)propyl)pyridin-1-ium Acetate] | 8 | – | > 7.00 | 16 | > 64 | 8
11 | – | O=C(COc1cc2[nH]c(-c3cc4ccc(Br)cc4[nH]3)cc2cc1Cl)NS(=O)(=O)c1ccc(NC(=O)C(F)(F)F)cc1 [Compound 195, N-(4-(N-(2-((6′-Bromo-5-chloro-1H, 1′H-[2,2′-biindol]-6-yl)oxy)acetyl)sulfamoyl)phenyl)-2,2,2-trifluoroacetamide] | 64 (≈ 95.5 µM) | – | > 7.00 | – | > 64 | 64 (≈ 95.5 µM)
12 | – | CN(C)CCc1c(-c2nc3cc(Cl)c(Cl)cc3[nH]2)[nH]c2cc(Br)ccc12 [Compound 202, 2-(6-Bromo-2-(5,6-dichloro-1H-benzo[d]imidazol-2-yl)-1H-indol-3-yl)-N,N-dimethylethan-1-amine] | 4 (≈ 8.85 µM) | – | > 7.00 | 4 (≈ 8.85 µM) | > 64 | 4 (≈ 8.85 µM)
13 | – | Clc1ccc2[nH]c(-c3cc4ccc(Br)cc4[nH]3)nc2n1 [Compound 208, 2-(6-Bromo-1H-indol-2-yl)-5-chloro-1H-imidazo[4,5-b]pyridine] | 8 (≈ 23 µM) | – | < 6.00 | 16 (≈ 46 µM) | > 64 | 8 (≈ 23 µM)
